How the values were obtained:
[1] = WST-1 cytotoxicity study in MDCK cells; assay type: cell-based; conditions: dog, MDCK cells (ASBT-MDCK or OCTN2-MDCK, not specified)
[2] = tested on: MDCK cells; experiment: WST-1 cytotoxicity study in MDCK cells; assay type: cell-based; conditions: for cytotoxicity in MDCK cells (in words): cytotoxic if cell viability 80% or less, 10 min exposure
[3] = target: T1, human apical sodium-dependent bile acid transporter (ASBT; SLC10A2) (Homo sapiens, UniProt Q12908); experiment: ASBT inhibition: taurocholate uptake into ASBT-MDCK cells; assay type: cell-based; conditions: for ASBT inhibitor: with consideration of cytotoxicity
T1 sequence (Q12908 1-348): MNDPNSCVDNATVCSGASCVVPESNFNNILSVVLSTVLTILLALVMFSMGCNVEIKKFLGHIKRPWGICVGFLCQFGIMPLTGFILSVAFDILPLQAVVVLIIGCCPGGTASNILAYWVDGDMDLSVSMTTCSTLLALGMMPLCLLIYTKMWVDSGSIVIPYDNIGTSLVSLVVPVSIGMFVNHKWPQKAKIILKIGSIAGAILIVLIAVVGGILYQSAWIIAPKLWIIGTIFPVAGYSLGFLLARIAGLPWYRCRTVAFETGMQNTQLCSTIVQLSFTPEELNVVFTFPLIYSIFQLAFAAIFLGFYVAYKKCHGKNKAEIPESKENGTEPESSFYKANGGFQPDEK

[4] = target: T2, excitatory amino acid transporter 4 (EAAT4; SLC1A6) (Homo sapiens, UniProt P48664); experiment: EAAT4 inhibition: glutamate uptake into EAAT4-HEK cells; assay type: cell-based; conditions: for EAAT4 inhibitor: with consideration of cytotoxicity
T2 sequence (P48664 1-564): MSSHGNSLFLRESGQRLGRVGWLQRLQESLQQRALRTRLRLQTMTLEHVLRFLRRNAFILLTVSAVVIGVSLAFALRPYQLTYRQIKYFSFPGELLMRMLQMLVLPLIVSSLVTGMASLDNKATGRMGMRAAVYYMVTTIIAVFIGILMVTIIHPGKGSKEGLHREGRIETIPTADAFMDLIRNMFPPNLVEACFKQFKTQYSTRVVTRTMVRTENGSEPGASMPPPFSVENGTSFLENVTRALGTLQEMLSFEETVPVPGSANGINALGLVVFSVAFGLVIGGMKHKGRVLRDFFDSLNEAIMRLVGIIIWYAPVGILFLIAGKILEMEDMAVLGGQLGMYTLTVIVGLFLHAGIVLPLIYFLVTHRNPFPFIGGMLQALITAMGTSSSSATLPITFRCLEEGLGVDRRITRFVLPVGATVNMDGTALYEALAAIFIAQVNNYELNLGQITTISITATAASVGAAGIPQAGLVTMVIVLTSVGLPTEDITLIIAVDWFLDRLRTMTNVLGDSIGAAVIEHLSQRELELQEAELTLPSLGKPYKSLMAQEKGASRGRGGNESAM

[5] = tested on: HEK cells; conditions: for cytotoxicity in HEK cells (in words): cytotoxic if cell viability 80% or less, 10 min exposure
[6] = target: T1, human apical sodium-dependent bile acid transporter (ASBT; SLC10A2); conditions: known inhibitors selected for this study; cited from earlier work
[7] = target: T3, human organic cation/carnitine transporter (OCTN2; SLC22A5) (Homo sapiens, UniProt O76082); experiment: OCTN2 inhibition: L-carnitine uptake into OCTN2-MDCK cells; assay type: cell-based; conditions: for OCTN2 inhibitor: with consideration of cytotoxicity
T3 sequence (O76082 1-557): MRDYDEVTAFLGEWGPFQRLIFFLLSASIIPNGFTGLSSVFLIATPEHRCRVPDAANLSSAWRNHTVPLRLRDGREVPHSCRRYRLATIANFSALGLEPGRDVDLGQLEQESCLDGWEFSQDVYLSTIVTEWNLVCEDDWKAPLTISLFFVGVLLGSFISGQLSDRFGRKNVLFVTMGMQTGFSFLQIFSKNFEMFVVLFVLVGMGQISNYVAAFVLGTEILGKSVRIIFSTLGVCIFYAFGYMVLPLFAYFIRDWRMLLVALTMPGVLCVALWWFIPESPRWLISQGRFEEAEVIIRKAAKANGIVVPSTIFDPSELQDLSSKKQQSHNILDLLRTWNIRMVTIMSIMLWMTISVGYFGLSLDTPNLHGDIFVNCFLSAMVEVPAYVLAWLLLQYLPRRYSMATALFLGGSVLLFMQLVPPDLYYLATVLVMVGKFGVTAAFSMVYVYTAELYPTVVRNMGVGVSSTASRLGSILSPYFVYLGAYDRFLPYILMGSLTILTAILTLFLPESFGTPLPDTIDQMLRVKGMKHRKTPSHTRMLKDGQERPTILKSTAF

[8] = EAAT4-HEK, drug concentration not given

Structure (SMILES)	cytotoxicity in MDCK cells (in words) [2]	ASBT inhibitor [3]	EAAT4 inhibitor [4]	cytotoxicity in HEK cells (in words) [5]	also measured
CCOC(=O)C1=C(COCCN)NC(C)=C(C(=O)OC)C1c1ccccc1Cl (stereo not shown) [Amlodipine, amlodipine]	cytotoxic to MDCK cells				viability at 10 min, 100 μM [1]: 101 ± 6%; viability at 10 min, 500 μM [1]: 39.3%; cells non-viable ([2]; MDCK cells): 60%
CN(C)CCC(c1ccc(Cl)cc1)c1ccccn1 (stereo not shown) [Chlorpheniramine, chlorpheniramine]		only inhibited OCTN2			
CN1CCN(C2=Nc3cc(Cl)ccc3Nc3ccccc32)CC1 [Clozapine, clozapine]	not cytotoxic in MDCK cells		non-inhibitors of EAAT4	reduced cell viability in HEK cells	
COc1ccc([C@@H]2Sc3ccccc3N(CCN(C)C)C(=O)[C@@H]2OC(C)=O)cc1 [Diltiazem, diltiazem]					ASBT inhibition, previously reported [6]: known to inhibit both transporters
CC(C)n1c(/C=C/C(O)CC(O)CC(=O)O)c(-c2ccc(F)cc2)c2ccccc21 (stereo not shown) [Fluvastatin, fluvastatin]			inhibited all three transporters	without cytotoxicity	taurocholate uptake [3]: 4.51%; ASBT inhibition ([3]; ASBT-MDCK, drug concentration not given): over 90%; OCTN2 inhibition (reduction of L-carnitine uptake) ([7]; OCTN2-MDCK, drug concentration not given): ~35%; EAAT4 inhibition [4, 8]: ~35%; glutamate uptake [4, 8]: about 60%; viability at 10 min [1]: 107%; ASBT inhibition, previously reported [6]: competitively inhibits ASBT
COc1ccc2c(c1)c(CC(=O)O)c(C)n2C(=O)c1ccc(Cl)cc1 [Indomethacin, indomethacin]		only inhibited ASBT			OCTN2 inhibitor [7]: only inhibited ASBT
CC[C@H](C)C(=O)O[C@H]1C[C@@H](C)C=C2C=C[C@H](C)[C@H](CC[C@@H]3C[C@@H](O)CC(=O)O3)[C@H]21 [Lovastatin, lovastatin]			did not appreciably inhibit EAAT4		
COC(=O)C1=C(C)NC(C)=C(C(=O)OCCN(C)Cc2ccccc2)C1c1cccc([N+](=O)[O-])c1 (stereo not shown) [Nicardipine, nicardipine]	cytotoxic to MDCK cells	only inhibited ASBT			
COC(=O)C1=C(C)NC(C)=C(C(=O)OCC(C)C)C1c1ccccc1[N+](=O)[O-] (stereo not shown) [Nisoldipine, nisoldipine]	cytotoxic to MDCK cells	only inhibited ASBT			OCTN2 inhibitor [7]: not classed as OCTN2 inhibitors; viability at 10 min, 100 μM [1]: 56%
CCC(C)(C)C(=O)O[C@H]1C[C@@H](C)C=C2C=C[C@H](C)[C@H](CC[C@@H]3C[C@@H](O)CC(=O)O3)[C@H]21 [Simvastatin, simvastatin]			did not appreciably inhibit EAAT4		
CSc1ccc2c(c1)N(CCC1CCCCN1C)c1ccccc1S2 (stereo not shown) [Thioridazine, thioridazine]	not cytotoxic in MDCK cells		non-inhibitors of EAAT4	reduced cell viability in HEK cells	viable cells / cell viability ([5]; HEK cells, 10 min, drug concentration not given): 73.5%; ASBT inhibition, previously reported [6]: known to inhibit both transporters
Clc1ccc(C(Cn2ccnc2)OCc2ccsc2Cl)c(Cl)c1 (stereo not shown) [Tioconazole, tioconazole]	not in MDCK cells		non-inhibitors of EAAT4	reduced cell viability in HEK cells	
CN(C)CCCN1c2ccccc2Sc2ccc(Cl)cc21 [chlorpromazine]	not cytotoxic in MDCK cells				
